Experimental data from patent publication US6114349A, “Substituted quinoline derivatives with antiviral action” (Hoechst Aktiengesellschaft, priority 1996, dated 2000).
In brackets after ≈: the same amount, converted by molar mass.

Columns and labels:
[1] = molecular target: T1, HIV "Reverse Transcriptase" (Human immunodeficiency virus type 1 group M subtype B, UniProt P04585); test: Inhibition of HIV reverse transcriptase, Scintillation Proximity Assay (SPA); assay type: biochemical; settings: RT-SPA, 60 min, 37° C.; read-out: Reverse Transcriptase Assay IC-50 (converted)
T1 construct: purchased HT Biotechnology LTD, Cambridge, UK; host or cells: E. coli
Protocol: Investigation of the Substances for Inhibition of HIV "Reverse Transcriptase"
The activity of the reverse transcriptase (RT) was determined using a "Scintillation Proximity Assay" (SPA).
The reagent kit for the RT-SPA was obtained from Amersham/Buchler (Brunswick). The enzyme RT (from HIV cloned in E. coli) came from HT Biotechnology LTD, Cambridge, UK.
The test was carried out according to the method manual of the manufacturer Amersham--with the following modifications:
Bovine serum albumin was added to the assay buffer to a final concentration of 0.5 mg/ml.
The test was carried out in Eppendorf reaction vessels with a […] batch volume.
The RT concentrate of the manufacturer (5000 U/ml) was diluted to an activity of 15 U/ml in tris HCl buffer 20 mM; pH 7.2; 30% glycerol.
The incubation time for the batches was 60 min (37° C.).
After stopping the reaction and "development" with the bead suspension, 130 μl batches were transferred to 4.5 ml of tris HCl buffer, 10 mM; pH 7.4; 0.15 M NaCl and the tritium activity was measured in a β-counter.
For a preliminary test of the inhibitor activity, the substances were dissolved in DMSO (stock solution c=1 mg/ml) and tested in dilution in DMSO 10^-1, 10^-2, 10^-3 etc.
For the determination of IC50 values, the inhibitor stock solutions were further diluted in tris HCl buffer, 50 mM, pH 8 and tested in suitable concentrations.
From the graphic representation of RT activity versus Log Clnh., the concentration associated with a 50% enzyme inhibition was determined.

[2] = system: HIV; test: Testing of preparations against HIV in cell culture (giant cell formation in HIV-infected lymphocytes); assay type: cell-based; settings: 3 days, 37° C.; for MIC: Human immunodeficiency virus 1, 72 h, lowest concentration at which no giant cells occurred; for EC50: Human immunodeficiency virus 1, Lymphocyte, 72 h
Protocol: Testing of Preparations Against HIV Cell Culture
Complete medium additionally contains 20% fetal calf serum and 40 IU/ml of recombinant interleukin 2.
Lymphocytes isolated from fresh donor blood by means of Ficoll^R gradient centrifugation are cultured at 37° C. under 5% CO2 for 36 h in complete medium with addition of […] of phytohemagglutinin (Wellcome). After addition of 10% DMSO, the cells are frozen at a cell density of 5×10^6 and stored in liquid nitrogen. For the experiment, the cells are thawed, washed in RPMI medium and cultured in complete medium for 3-4 days.
The test preparations were dissolved in DMSO in a concentration of 16.7 mg/ml and diluted to 1 mg/ml in complete medium. 0.4 ml of medium was initially introduced into 24-well multiwell dishes. After addition of 0.1 ml of the dissolved preparation in the top row of the dish, a geometrical dilution series was produced by transfer of 0.1 ml in each case. Preparation-free controls always contained 0.4 ml of complete medium containing 0.5% DMSO. Lymphocyte cultures having a cell count of 5×10^5 cells/ml were infected by addition of 1/50 volumes of supernatant from HIV-infected lymphocyte cultures. The titer of these culture supernatants was determined by endpoint dilution with 1-5×10^6 infectious units/ml. After incubation at 37° C. for 30 min, the infected lymphocytes were removed by centrifugation and taken up again in the same volume of medium. 0.6 ml of this cell suspension in each case was added to all hollows of the test plate. The batches were incubated at 37° C. for 3 days.
The infected cell cultures were investigated under the microscope for the presence of giant cells, which indicate active virus replication in the culture. The lowest preparation concentration at which no giant cells occurred was determined as the inhibitory concentration against HIV. For the control, the supematants from the culture plates were determined for the presence of HIV antigen using an HIV antigen test according to the instructions of the manufacturer (Organon).

[3] = Hirsch, M. S. J. Infect. Dis. 157 (1988), 427-431; cited from earlier work

## CCc1c(C(=O)OC(C)C)c2ccccc2[nH]c1=S [Compound 5]
[1]
  IC50: 0.035 µM
[2]
  MIC: 0.2 µg/mL (≈ 0.726 µM)
  EC50: 0.005 µg/mL (≈ 0.0182 µM)

## CC(C)OC(=O)c1c(-c2ccccc2)c(=S)[nH]c2ccc(Cl)cc12 [Compound 6]
[1]
  IC50: 0.022 µM

## CC(C)OC(=O)c1c(-c2ccccc2)c(=S)[nH]c2ccc(F)cc12 [Compound 15]
[1]
  IC50: 0.021 µM
[2]
  MIC: > 0.04 µg/mL
  EC50: ~0.02 µg/mL (≈ 0.0586 µM)

## CC(C)Cc1c(C(=O)OC(C)C)c2ccccc2[nH]c1=O [Compound 16]
[1]
  IC50: 0.372 µM
[2]
  MIC: > 0.04 µg/mL
  EC50: 0.05 µg/mL (≈ 0.174 µM)

## CCC(CC)OC(=O)c1c(-c2ccccc2)c(=S)[nH]c2ccc(Cl)cc12 [Compound 18]
[1]
  IC50: 0.029 µM
[2]
  MIC: > 0.2 µg/mL
  EC50: ~0.08 µg/mL (≈ 0.207 µM)

## CCc1c(C(=O)OC(C)C)c2cc(Cl)ccc2[nH]c1=O [Compound 19, isopropyl 6-chloro-3-ethylquinolin-2(1H)-one-4-carboxylate]
[1]
  IC50: 0.094 µM
[2]
  MIC: ~0.2 µg/mL (≈ 0.681 µM)
  EC50: ~0.02 µg/mL (≈ 0.0681 µM)

## CCc1c(C(=O)OC(C)C)c2cc(Cl)ccc2[nH]c1=S [Compound 20, isopropyl 6-chloro-3-ethylquinoline-2(1H)-thione-4-carboxylate]
[1]
  IC50: 0.008 µM
[2]
  MIC: > 0.008 µg/mL
  EC50: ~0.002 µg/mL (≈ 0.00646 µM)

## CCc1c(C(=O)OC2CCCC2)c2ccccc2[nH]c1=S [Compound 30]
[1]
  IC50: 0.147 µM
[2]
  MIC: ~0.2 µg/mL (≈ 0.664 µM)
  EC50: ~0.04 µg/mL (≈ 0.133 µM)

## CC(C)OC(=O)c1c(C(C)C)c(=O)[nH]c2ccccc12 [Compound 34]
[1]
  IC50: 1.52 µM
[2]
  MIC: > 0.2 µg/mL
  EC50: ~0.1 µg/mL (≈ 0.366 µM)

## CC(C)OC(=O)c1c(C(C)C)c(=S)[nH]c2ccccc12 [Compound 35]
[1]
  IC50: 0.529 µM
[2]
  MIC: > 0.04 µg/mL
  EC50: > 0.008 µg/mL

## COC(=O)c1c(C)c(=S)[nH]c2ccc(Cl)cc12 [Compound 39]
[2]
  MIC: > 0.2 µg/mL
  EC50: 0.03 µg/mL (≈ 0.112 µM)

## Cc1c(C(=O)OC(C)C)c2cc(Cl)ccc2[nH]c1=O [Compound 40]
[1]
  IC50: 0.608 µM
[2]
  MIC: > 0.04 µg/mL
  EC50: 0.015 µg/mL (≈ 0.0536 µM)

## Cc1c(C(=O)OC(C)C)c2cc(Cl)ccc2[nH]c1=S [Compound 41]
[2]
  MIC: > 0.04 µg/mL
  EC50: < 0.001 µg/mL

## Cc1c(C(=O)OCC2CC2)c2cc(Cl)ccc2[nH]c1=O [Compound 42]
[2]
  MIC: > 0.2 µg/mL
  EC50: ~0.1 µg/mL (≈ 0.343 µM)

## Cc1c(C(=O)OCC2CC2)c2cc(Cl)ccc2[nH]c1=S [Compound 43]
[1]
  IC50: 0.026 µM

## CCCOC(=O)c1c(C)c(=S)[nH]c2ccc(Cl)cc12 [Compound 45]
[1]
  IC50: 0.034 µM
[2]
  MIC: < 0.2 µg/mL
  EC50: ~0.04 µg/mL (≈ 0.135 µM)

## CC(C)OC(=O)c1c(-c2ccccc2Cl)c(=S)[nH]c2ccccc12 [Compound 61]
[1]
  IC50: 0.026 µM
[2]
  MIC: ~0.08 µg/mL (≈ 0.224 µM)

## CCOC(=O)c1c(CC)c(=S)[nH]c2ccc(Cl)cc12 [Compound 67]
[1]
  IC50: 0.001 µM

## CCc1c(C(=O)OC2CCCCC2)c2cc(Cl)ccc2[nH]c1=S [Compound 70]
[1]
  IC50: 0.008 µM
[2]
  MIC: ~0.4 µg/mL (≈ 1.14 µM)
  EC50: < 0.08 µg/mL

## C=CCOC(=O)c1c(CC)c(=S)[nH]c2ccc(Cl)cc12 [Compound 71]
[1]
  IC50: 0.001 µM
[2]
  MIC: ~0.4 µg/mL (≈ 1.3 µM)
  EC50: < 0.08 µg/mL

## Nc1ccn([C@H]2CC[C@@H](CO)O2)c(=O)n1 [DDC]
[3]
  therapeutic breadth / toxicity: very narrow therapeutic breadth or by very severe toxicity which occurs even in the therapeutic range

## O=c1[nH]cnc2c1ncn2[C@H]1CC[C@@H](CO)O1 [DDI]
[3]
  therapeutic breadth / toxicity: very narrow therapeutic breadth or by very severe toxicity which occurs even in the therapeutic range
